Measurements taken from patent publication US11414424B2, “Cardiac sarcomere inhibitors” (Cytokinetics, Inc., priority 2018, dated 2022).

tested on: bovine cardiac myofibrils; assay: Myofibril assay: PK/LDH-coupled steady-state ATPase activity of skinned bovine cardiac myofibrils; type: biochemical; conditions: Ca2+ activating to 75% of maximal rate
Experimental: To evaluate the effect of compounds on the ATPase activity of full-length cardiac myosin in the context of the native sarcomere, skinned myofibril assays were performed. Bovine cardiac myofibrils were obtained by homogenizing bovine cardiac left ventricular tissue in the presence of a detergent such as triton X-100. Such treatment removes membranes and a majority of the soluble cytoplasmic proteins but leaves intact the cardiac sarcomeric acto-myosin apparatus. Myofibril preparations retain the ability to hydrolyze ATP in a Ca^2+ regulated manner. ATPase activities of such myofibril preparations in the presence and absence of compounds were assayed at Ca^2+ concentrations activating to a defined fraction of the maximal rate (i.e., […], 75%). Small molecule agents were assessed for their ability to inhibit the steady-state ATPase activity of bovine cardiac myofibrils using pyruvate kinase and lactate dehydrogenase (PK/LDH)-coupled enzyme system. This assay regenerates myosin-produced ADP into ATP by oxidizing NADH, producing an absorbance change at 340 nm. Prior to testing small molecule agents, the bovine cardiac myofibrils were assessed for their calcium responsiveness and the calcium concentration that achieves either a 50% (pCa50) or 75% (pCa75) activation of the myofibril system was chosen as the final condition for assessing the inhibitory activity of the small molecule agents. All enzymatic activity was measured in a buffered solution containing 12 mM PIPES (piperazine-N,N′-bis(2-ethanesulfonic acid), 2 mM magnesium chloride at pH 6.8 (PM 12 buffer). Final assay conditions were 1 mg/mL of bovine cardiac myofibrils, 4 U/mL pyruvate kinase, 6 U/mL lactate dehydrogenase, 50 μM ATP, 0.1 mg/mL BSA (bovine serum albumin), 10 ppm antifoam, 1 mM DTT, 0.5 mM NADH, 1.5 mM PEP, 0.6 mM EGTA, and an amount of CaCl2 sufficient to achieve either 50% or 75% activation of the myofibril ATPase activity. Results for compounds tested are provided in Table A. Compounds tested were prepared in accordance with the synthetic procedures described herein.

Compared with `CC(=O)N1CC2(C1)C(=O)N(c1ncc(C#N)cc1F)CC(=O)N2Cc1ccc(C(F)(F)F)cc1` [Compound 530, 6-(2-acetyl-6,9-dioxo-5-(4-(trifluoromethyl)benzyl)-2,5,8-triazaspiro[3.5]nonan-8-yl)-5-fluoronicotinonitrile], `CC(=O)N1CC[C@]2(C1)C(=O)N(c1ccc(C#N)cc1F)CC(=O)N2Cc1ccc(C(F)(F)F)cc1` [Compound 209, (S)-4-(2-acetyl-7,10-dioxo-6-(4-(trifluoromethyl)-benzyl)-2,6,9-triazaspiro-[4.5]decan-9-yl)-3-fluorobenzonitrile] is 9.4-fold lower in “CDMF75 IC15” value: 4.7 µM for the first, 0.5 µM for the second.

Going from `CC(C)NC(=O)N1CC2(C1)C(=O)N(c1ncc(Cl)cc1F)CC(=O)N2[C@@H](C)c1ccc(Cl)cc1` [Compound 561, (S)-8-(5-chloro-3-fluoro-pyridin-2-yl)-5-(1-(4-chlorophenyl)ethyl)-N-isopropyl-6,9-dioxo-2,5,8-triazaspiro[3.5]nonane-2-carboxamide] to `C[C@@H](c1ccc(Cl)cc1)N1C(=O)CN(c2ncc(Cl)cc2F)C(=O)C12COC2` [Compound 558], the “CDMF75 IC15” value falls from 19.8 µM to 7.04 µM (2.8-fold).

First: CC(C)N1CC(=O)N(Cc2ccc(Cl)cc2)C2(CN(c3cncnc3)C2)C1=O [Compound 25, 5-(4-chlorobenzyl)-8-isopropyl-2-(pyrimidin-5-yl)-2,5,8-triazaspiro-[3.5]nonane-6,9-dione]
Second: CC(C)N1CC(=O)N(Cc2ccc(Cl)cc2)C2(CN(c3ccc(Cl)nn3)C2)C1=O [Compound 50, 5-(4-chlorobenzyl)-2-(6-chloropyridazin-3-yl)-8-isopropyl-2,5,8-triazaspiro[3.5]nonane-6,9-dione]
The “CDMF75 IC15” value of the first is 1.5-fold higher: 8.8 µM for the first, 5.8 µM for the second.

First: O=C1CN([C@H]2CCOC2)C(=O)C2(CCN(c3ccccn3)C2)N1Cc1ccc(Cl)cc1 (stereo partly drawn) [Compound 94, 6-(4-chlorobenzyl)-2-(pyridin-2-yl)-9-((S)-tetra-hydrofuran-3-yl)-2,6,9-triazaspiro[4.5]decane-7,10-dione]
Second: CC(C)N1CC(=O)N(Cc2ccc(Cl)cc2)C2(CCN(c3ccc(C#N)cn3)C2)C1=O (stereo not drawn) [Compound 96, 6-(6-(4-chlorobenzyl)-9-isopropyl-7,10-dioxo-2,6,9-triazaspiro[4.5]decan-2-yl)nicotinonitrile]
The “CDMF75 IC15” value of the first is 8-fold higher: 36.1 µM for the first, 4.5 µM for the second.

First: CNC(=O)N1CC2(C1)C(=O)N(Cc1ccc(C(F)(F)F)cc1)CC(=O)N2Cc1ccc(C(F)(F)F)cc1 [Compound 335, N-methyl-6,9-dioxo-5,8-bis(4-(trifluoromethyl)benzyl)-2,5,8-triazaspiro[3.5]nonane-2-carboxamide]
Second: N#Cc1ccc(N2CC(=O)N(Cc3ccc(C(F)(F)F)cc3)C3(CN(C(=O)C4CC4)C3)C2=O)c(F)c1 [Compound 203, 4-(2-(cyclopropanecarbonyl)-6,9-dioxo-5-(4-(trifluoromethyl)benzyl)-2,5,8-triazaspiro[3.5]nonan-8-yl)-3-fluorobenzonitrile]
The “CDMF75 IC15” value of the first is 20-fold higher: 12.2 µM for the first, 0.6 µM for the second.

First: CC(C)N1CC(=O)N(Cc2ccc(Cl)cc2)C2(CN(c3ccnc(C(=O)O)c3)C2)C1=O [Compound 36, 4-(5-(4-chlorobenzyl)-8-isopropyl-6,9-dioxo-2,5,8-triazaspiro[3.5]nonan-2-yl)picolinic acid]
Second: CC(C)N1CC(=O)N(Cc2ccc(Cl)cc2)C2(CN(c3nc(C(N)=O)cs3)C2)C1=O [Compound 40, 2-(5-(4-chlorobenzyl)-8-isopropyl-6,9-dioxo-2,5,8-triazaspiro[3.5]nonan-2-yl)thiazole-4-carboxamide]
The “CDMF75 IC15” value of the first is 3.4-fold higher: 24.5 µM for the first, 7.2 µM for the second.

`CC(C)N1CC(=O)N(Cc2cccc(Cl)c2)C(c2ccc(Cl)cc2)C1=O` (stereo not drawn) [Compound 298, 4-(3-chlorobenzyl)-3-(4-chlorophenyl)-1-isopropylpiperazine-2,5-dione] and `CC(C)N1CC(=O)N(Cc2ccc(Cl)cc2)C2(CN(c3ccc(C(N)=O)nn3)C2)C1=O` [Compound 54, 6-(5-(4-chlorobenzyl)-8-isopropyl-6,9-dioxo-2,5,8-triazaspiro[3.5]-nonan-2-yl)pyridazine-3-carboxamide] are within 1.5-fold of each other in “CDMF75 IC15” value: 5.4 µM for the first, 7.8 µM for the second.

Going from `N#Cc1ccc(N2CC(=O)N(Cc3ccc(C(F)(F)F)cc3)[C@]3(C[C@H](c4nnc(C(F)F)o4)C3)C2=O)c(F)c1` [Compound 454B] to `N#Cc1ccc(N2CC(=O)N(Cc3ccc(C(F)(F)F)cc3)[C@]3(C[C@H](C(=O)N4CCOCC4)C3)C2=O)c(F)c1` [Compound 444B], the “CDMF75 IC15” value rises from 0.1 µM to 0.2 µM (2-fold).

Compared with `CC(C)N1CC(=O)N(Cc2ccc(C(F)(F)F)cc2)C2(CN(c3cc[nH]c(=O)c3)C2)C1=O` [Compound 48, 8-isopropyl-2-(2-oxo-1,2-dihydropyridin-4-yl)-5-(4-(trifluoromethyl)benzyl)-2,5,8-triazaspiro[3.5]-nonane-6,9-dione], `CC(C)N1CC(=O)N(Cc2ccc(C(F)(F)F)cc2)C2(CCN(C(=O)Nc3ccccc3)C2)C1=O` (stereo not drawn) [Compound 109, 9-isopropyl-7,10-dioxo-N-phenyl-6-(4-(trifluoro-methyl)benzyl)-2,6,9-triazaspiro[4.5]decane-2-carboxamide] is 5.2-fold higher in “CDMF75 IC15” value: 1.6 µM for the first, 8.3 µM for the second.

Going from `CC(C)C(=O)N1CC[C@]2(C1)C(=O)N(c1ccc(C#N)cc1F)CC(=O)N2Cc1ccc(Cl)cc1` [Compound 221, (S)-4-(6-(4-chlorobenzyl)-2-isobutyryl-7,10-dioxo-2,6,9-triazaspiro[4.5]decan-9-yl)-3-fluorobenzonitrile] to `O=C1CN(c2ccc(Cl)cc2F)C(=O)C2(CCC2)N1Cc1ccc(C(F)(F)F)cc1` [Compound 272, 8-(4-chloro-2-fluorophenyl)-5-(4-(trifluoromethyl)-benzyl)-5,8-diazaspiro-[3.5]nonane-6,9-dione], the “CDMF75 IC15” value falls from 4.1 µM to 0.5 µM (8.2-fold).

Compared with `COC(=O)C12CC(C3C(=O)N(c4ncc(Cl)cc4F)CC(=O)N3Cc3ccc(C(F)(F)F)cc3)(C1)C2` (stereo not drawn) [Compound 778, methyl 3-(4-(5-chloro-3-fluoropyridin-2-yl)-3,6-dioxo-1-(4-(trifluoro-methyl)benzyl)piperazin-2-yl)bicydo[1.1.1]pentane-1-carboxylate], `Cc1ccc(CN2C(=O)CN(c3ncc(Cl)cc3F)C(=O)C2C23CC(C(N)=O)(C2)C3)cc1` (stereo not drawn) [Compound 792, 3-(4-(5-chloro-3-fluoro-pyridin-2-yl)-1-(4-methyl-benzyl)-3,6-dioxopiperazin-2-yl)bicyclo[1.1.1]pentane-1-carboxamide] is 1.6-fold higher in “CDMF75 IC15” value: 2.4 µM for the first, 3.8 µM for the second.

First: O=C1C(C2COC2)N(Cc2ccc(C(F)(F)F)cc2)C(=O)CN1c1ncc(OC(F)F)cc1F (stereo not drawn) [Compound 711, 1-(5-(difluoromethoxy)-3-fluoropyridin-2-yl)-3-(oxetan-3-yl)-4-(4-(trifluoromethyl)benzyl)-piperazine-2,5-dione]
Second: O=C1C([C@H]2C[C@@H](O)C2)N(Cc2ccc(C(F)(F)F)cc2)C(=O)CN1c1ncc(Cl)cc1F (stereo partly drawn) [Compound 739, 1-(5-chloro-3-fluoropyridin-2-yl)-3-((1 s,3s)-3-hydroxycyclobutyl)-4-(4-(trifluoromethyl)benzyl)piperazine-2,5-dione]
The “CDMF75 IC15” value of the first is 11-fold higher: 24.6 µM for the first, 2.2 µM for the second.

Compared with `CC(=O)N1CC(CC2C(=O)N(c3ncc(Cl)cc3F)CC(=O)N2Cc2ccc(C(F)(F)F)cc2)C1` (stereo not drawn) [Compound 661, 3-((1-acetylazetidin-3-yl)methyl)-1-(5-chloro-3-fluoropyridin-2-yl)-4-(4-(trifluoromethyl)benzyl)-piperazine-2,5-dione], `O=C1C(C2CCSCC2)N(Cc2ccc(C(F)(F)F)cc2)C(=O)CN1c1ncc(Cl)cc1F` (stereo not drawn) [Compound 687, 1-(5-chloro-3-fluoropyridin-2-yl)-3-(tetrahydro-2H-thiopyran-4-yl)-4-(4-(trifluoromethyl)benzyl)-piperazine-2,5-dione] is 2.7-fold lower in “CDMF75 IC15” value: 17.0 µM for the first, 6.2 µM for the second.

Going from `CC(=O)N1CC2(C1)CC1(C2)C(=O)N(c2ncc(Cl)cc2F)CC(=O)N1Cc1ccc(Cl)cc1` [Compound 831, 2-acetyl-10-(5-chloro-3-fluoropyridin-2-yl)-7-(4-chlorobenzyl)-2,7,10-triazadispiro[3.1.56.14]-dodecane-8,11-dione] to `O=C1CN(c2ncc(Cl)cc2F)C(=O)C2(COC2)N1Cc1ccc(Cl)cc1` [Compound 575, 8-(5-chloro-3-fluoropyridin-2-yl)-5-(4-chlorobenzyl)-2-oxa-5,8-diazaspiro[3.5]nonane-6,9-dione], the “CDMF75 IC15” value rises from 0.53 µM to 1.5 µM (2.8-fold).

`COC(=O)c1ccc(N2CC3(C2)C(=O)N(c2ccc(C#N)cc2F)CC(=O)N3Cc2ccc(C(F)(F)F)cc2)cc1` [Compound 534, methyl 4-(8-(4-cyano-2-fluorophenyl)-6,9-dioxo-5-(4-(trifluoromethyl)benzyl)-2,5,8-triazaspiro[3.5]nonan-2-yl)benzoate] and `CNc1ccc(N2CC3(C2)C(=O)N(c2ccc(C#N)cc2F)CC(=O)N3Cc2ccc(C(F)(F)F)cc2)cc1C(=O)OC` [Compound 543, methyl 5-(8-(4-cyano-2-fluorophenyl)-6,9-dioxo-5-(4-(trifluoromethyl)benzyl)-2,5,8-triazaspiro[3.5]nonan-2-yl)-2-(methylamino)-benzoate] are within 1.5-fold of each other in “CDMF75 IC15” value: 0.2 µM for the first, 0.3 µM for the second.
